Assay results as given in publication PMC8875489, “Pharmaceutical and Safety Profile Evaluation of Novel Selenocompounds with Noteworthy Anticancer Activity” (Pharmaceutics, 2022).
Values after ≈ are worked out from the molar mass of the structure shown. Read-outs that look alike come from different tables or passages of the source.

Columns and labels:
[1] = Water solubility of methylseleno-aspirin (literature); assay type: physicochemical; conditions: recalculated taking molecular weight into account
Description: The low solubility was not a surprise: according to the literature, the majority of the synthetic organic selenocompounds are poorly soluble in water. […] (or 0.0568 g/L when taking its molecular weight into account). […] To improve the solubility of water-insoluble anticancer drug candidates, the use of solubilizers, such as surfactants, organic solvents, cyclodextrins, lipids, and pH modifiers, is a common approach. Even though lowly water-soluble drugs can become moderately soluble if a suitable amount of additives is used, the usage of the additives need to be kept below their toxicity rate. Moreover, the usage of solubilizers can cause drug instability and is limited due to undesirable effects.

[2] = set-up: method as in PMID 33260948; conditions: cited from earlier work

In the case of `C[Se]C(=O)c1ccccc1OC(C)=O` [methylseleno-aspirin], the water solubility [1] is listed as 56.8 µg/mL (≈ 221 µM) and the water solubility [2] is listed as 220 µM (≈ 56.6 µg/mL).
